The text below walks through data of patent publication US7563895B2, “Quinoxaline compounds” (Janssen Pharmaceutica, N.V., priority 2003, dated 2009).

This test concerns the target T1, CCK2 receptor (Homo sapiens, UniProt P32239).
T1 construct: Membranes were prepared from the HEKZFP cells after induction; endogenous in cells; host or cells: HEKZFP cells (T-REx-293 with tet-inducible ZFP-VP16 specific for the CCK2R gene), doxycycline-induced; membrane preparation
T1 sequence (P32239 1-447): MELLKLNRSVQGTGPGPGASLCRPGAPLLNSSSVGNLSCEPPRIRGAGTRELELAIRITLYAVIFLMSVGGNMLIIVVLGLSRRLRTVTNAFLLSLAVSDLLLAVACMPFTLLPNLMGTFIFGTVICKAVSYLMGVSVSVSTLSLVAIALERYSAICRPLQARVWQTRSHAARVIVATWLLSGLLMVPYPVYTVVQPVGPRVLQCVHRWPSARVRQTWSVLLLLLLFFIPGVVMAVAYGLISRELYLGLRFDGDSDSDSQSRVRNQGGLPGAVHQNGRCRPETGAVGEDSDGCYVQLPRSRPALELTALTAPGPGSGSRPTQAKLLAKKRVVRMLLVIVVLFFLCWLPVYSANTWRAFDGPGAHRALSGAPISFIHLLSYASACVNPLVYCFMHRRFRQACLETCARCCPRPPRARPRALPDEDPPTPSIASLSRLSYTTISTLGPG
Nature of the test: CCK2 receptor radioligand binding assay ([125I]-BH-CCK-8S, HEKZFP cell membranes). To be noted: competition with [125I]-BH-CCK-8S, membranes of induced HEKZFP cells, 60 min at 21±3° C., Cheng-Prusoff. Here is the method:
Zinc Finger Proteins (ZFP) specific for the CCK2R gene were identified by Sangamo Biosciences. The ZFP domain was fused with the herpes simplex virus VP16 activation domain, and the fusion protein was subsequently cloned into the pcDNA3 mammalian expression vector (Invitrogen, San Diego, Calif.). […] After 2 weeks of selection in culture medium containing […] Zeocin (Invitrogen), sixty drug-resistant stable clones were isolated and analyzed for ZFP expression as well as CCK2R induction upon addition of doxycycline to the culture medium.
HEKZFP cells were grown in DMEM supplemented with L-glutamine (2 mM), penicillin (50 units/mL) and streptomycin (50 μg/mL) and 10% FBS (v/v).
Membranes were prepared from the HEKZFP cells after induction. […] The thawed pellets were homogenized using a Polytron PT-10 (7×1 s). The homogenates were centrifuged for 5 min at 1500 rpm (600×g), and the resulting pellets were discarded. The supernatants were re-centrifuged in order to collect the receptor-membrane pellets (25 min 15,000 rpm; 39,800×g), which were re-suspended in buffer A.
The assay preparation was incubated for 1 h at 21±3° C., and then the assay was terminated by rapid filtration of the preparation under reduced pressure. The loaded filters were washed three times using undiluted PBS (100 μL), and then 100 μL of scintillation fluid was added to the filter plate. Bound radioactivity was determined using a Topcount (Packard BioScience, Meriden, Conn.) with a count time of 1 min. […] To validate the radioligand concentration and incubation time for the assay, saturation and kinetic binding studies were also conducted (see M. F. Morton, The Pharmacological Characterization of Cholecystokinin Receptors in the Human Gastrointestinal Tract. PhD Thesis, University of London, 2000). […] The assay was then terminated according to the procedure outlined above.
The pKi values were determined using the equation of Y.-C.
To circumvent problems associated with computer-assisted data analysis of compounds with low affinity, the data obtained in the current study were weighed according to a method described by Morton. In brief, 100% and 0% specific binding were defined independently using total binding and binding obtained in the presence of a high concentration of the reference antagonist, 2-NAP.

Usually Ki stands for a dissociation constant, usually derived from enzyme kinetics or from competition with a known ligand. A high value points to a looser hold on the target. The pKi is the negative decadic logarithm of the Ki, by convention in mol/L. Lower therefore signals a large Ki.

As to `O=C(N[C@H](CF)c1ccc(F)cc1)c1ccc(Cl)cc1NS(=O)(=O)c1cccc2nccnc12` [Example 72, (S)-4-Chloro-N-[2-fluoro-1-(4-fluoro-phenyl)-ethyl]-2-(quinoxaline-5-sulfonylamino)-benzamide], the Ki was 100 nM.
`CC(NC(=O)c1ccc(Br)cc1NS(=O)(=O)c1cccc2nccnc12)c1ccc(Cl)cc1` (centres unmarked) [Example 50, 4-Bromo-N-[1-(4-chloro-phenyl)-ethyl]-2-(quinoxaline-5-sulfonylamino)-benzamide] had a Ki of 63.1 nM.
As to `O=C(N[C@H](CF)c1ccc(F)cc1)c1ccc(I)cc1NS(=O)(=O)c1cccc2nccnc12` [Example 73, (S)-N-[2-Fluoro-1-(4-fluoro-phenyl)-ethyl]-4-iodo-2-(quinoxaline-5-sulfonylamino)-benzamide], affinity was put at a Ki of 79.4 nM.
Regarding `O=C(N[C@H](CF)c1ccc(F)cc1F)c1ccc(Br)cc1NS(=O)(=O)c1cccc2nccnc12` [Example 76, (S)-4-Bromo-N-[1-(2,4-difluoro-phenyl)-2-fluoro-ethyl]-2-(quinoxaline-5-sulfonylamino)-benzamide], the Ki is 25.1 nM.
Same read-out and setting: in the case of `O=C(c1ccc(Br)cc1NS(=O)(=O)c1cccc2nccnc12)N1CCCc2cc(F)ccc2C1` [Example 24, Quinoxaline-5-sulfonic acid [5-bromo-2-(7-fluoro-1,3,4,5-tetrahydro-benzo[c]azepine-2-carbonyl)-phenyl]-amide] it was 316 nM.
The same measure, in the same setting: in the case of `O=C(c1cc(Cl)c(Cl)cc1NS(=O)(=O)c1cccc2nccnc12)N1CCOCC1` [Example 20, Quinoxaline-5-sulfonic acid [4,5-dichloro-2-(morpholine-4-carbonyl)-phenyl]-amide] it was 79.4 nM.
Same read-out and setting: in the case of `O=C(c1ccc(Cl)cc1NS(=O)(=O)c1cccc2nccnc12)N1CCCCC1` [Example 79, Quinoxaline-5-sulfonic acid [5-chloro-2-(piperidine-1-carbonyl)-phenyl]-amide] it was 251 nM.
The compound `C[C@H]1COCCN1C(=O)c1ccc(I)cc1NS(=O)(=O)c1cccc2nccnc12` [Example 23, (S)-Quinoxaline-5-sulfonic acid [5-iodo-2-(3-methylmorpholine-4-carbonyl)-phenyl]-amide] had a Ki of 251 nM.
Still for that read-out and setting: in the case of `C[C@@H](NC(=O)c1ccc(I)cc1NS(=O)(=O)c1cccc2nccnc12)c1ccc(F)cc1F` [Example 15, (R)—N-[1-(2,4-Difluorophenyl)-ethyl]-4-iodo-2-(quinoxaline-5-sulfonylamino)-benzamide] it was 12.6 nM.
The compound `O=C(c1ccc(Br)cc1NS(=O)(=O)c1cccc2nccnc12)N1CCOCC1` [Example 11, (R)-Quinoxaline-5-sulfonic acid [5-bromo-2-(morpholine-4-carbonyl)-phenyl]-amide] yielded a pKi of 7.2.
`C[C@@H](NC(=O)c1ccc(I)cc1NS(=O)(=O)c1cccc2nccnc12)c1ccc(F)cc1` [Example 63, (R)-N-[1-(4-Fluoro-phenyl)-ethyl]-4-iodo-2-(quinoxaline-5-sulfonylamino)-benzamide]: affinity was put at a Ki of 31.6 nM.
`C[C@H](c1ccccc1)N(C)C(=O)c1ccc(Cl)cc1NS(=O)(=O)c1cccc2nccnc12` [Example 62, (R)-4-Chloro-N-methyl-N-(1-phenyl-ethyl)-2-(quinoxaline-5-sulfonylamino)-benzamide] had a Ki of 15.8 nM.
The same measure, in the same setting: in the case of `O=C(N[C@@H](c1ccc(F)cc1F)C(F)(F)F)c1ccc(Cl)cc1NS(=O)(=O)c1cccc2nccnc12` [Example 29, (S)-4-Chloro-N-[1-(2,4-difluoro-phenyl)-2,2,2-trifluoroethyl]-2-(quinoxaline-5-sulfonylamino)-benzamide] it was 501 nM.
On the same count and under the same terms, in the case of `C[C@H]1COCCN1C(=O)c1ccc(Br)cc1NS(=O)(=O)c1cccc2nccnc12` [Example 28, (S)-Quinoxaline-5-sulfonic acid [5-bromo-2-(3-methylmorpholine-4-carbonyl)-phenyl]-amide] it was 398 nM.
`CN(Cc1ccc(Cl)cc1)C(=O)c1ccc(I)cc1NS(=O)(=O)c1cccc2nccnc12` [Example 48, N-(4-Chloro-benzyl)-4-iodo-N-methyl-2-(quinoxaline-5-sulfonylamino)-benzamide] showed a Ki of 20 nM.
The same measure, in the same setting: in the case of `C[C@@H](NC(=O)c1ccc(C#N)cc1NS(=O)(=O)c1cccc2nccnc12)c1ccc(F)cc1F` [Example 38, (R)-4-Cyano-N-[1-(2,4-difluoro-phenyl)ethyl]-2-(quinoxaline-5-sulfonylamino)-benzamide] it was 316 nM; in that of `O=C(c1ccc(C(F)(F)F)cc1NS(=O)(=O)c1cccc2nccnc12)N1CCOCC1` [Example 92, Quinoxaline-5-sulfonic acid [2-(morpholine-4-carbonyl)-5-trifluoromethyl-phenyl]-amide], 79.4 nM; in that of `C[C@@H](NC(=O)c1ccc(I)cc1NS(=O)(=O)c1cccc2nccnc12)c1ccc(Cl)cc1Cl` [Example 64, (R)-N-[1-(2,4-Dichloro-phenyl)-ethyl]-4-iodo-2-(quinoxaline-5-sulfonylamino)-benzamide], 25.1 nM.
Still for that read-out and setting: in the case of `O=C(N[C@H](CF)c1ccc(F)cc1F)c1ccc(I)cc1NS(=O)(=O)c1cccc2nccnc12` [Example 77, (S)-N-[1-(2,4-Difluoro-phenyl)-2-fluoro-ethyl]-4-iodo-2-(quinoxaline-5-sulfonylamino)-benzamide] it was 50.1 nM.
Same read-out and setting: in the case of `O=C(c1ccc(Br)cc1NS(=O)(=O)c1cccc2nccnc12)N1CCCCCC1` [Example 21, Quinoxaline-5-sulfonic acid [2-(azepane-1-carbonyl)-5-bromophenyl]-amide] it was 126 nM; in that of `C[C@@H]1COCCN1C(=O)c1ccc(Br)cc1NS(=O)(=O)c1cccc2nccnc12` [Example 12, (R)-Quinoxaline-5-sulfonic acid [5-bromo-2-(3-methylmorpholine-4-carbonyl)-phenyl]-amide], 79.4 nM; in that of `O=C(c1ccc(Cl)cc1NS(=O)(=O)c1cccc2nccnc12)N1CCOc2cc(F)cc(F)c2C1` [Example 40, Quinoxaline-5-sulfonic acid [5-chloro-2-(6,8-difluoro-2,3-dihydro-5H-benzo[f][1,4]oxazepine-4-carbonyl)-phenyl]-amide], 251 nM.
As for `C[C@@H]1COCCN1C(=O)c1ccc(I)cc1NS(=O)(=O)c1cccc2nccnc12` [Example 19, (R)-Quinoxaline-5-sulfonic acid [5-iodo-2-(3-methylmorpholine-4-carbonyl)-phenyl]-amide], the Ki is 79.4 nM.
In turn, `O=C(NCc1ccc(F)cc1Cl)c1ccc(Br)cc1NS(=O)(=O)c1cccc2nccnc12` [Example 16, 4-Bromo-N-(2-chloro-4-fluoro-benzyl)-2-(quinoxaline-5-sulfonylamino)-benzamide] gave a Ki of 39.8 nM.
Same read-out and setting: in the case of `O=C(c1ccc(Cl)cc1NS(=O)(=O)c1cccc2nccnc12)N1CCOc2ccccc2C1` [Example 22, Quinoxaline-5-sulfonic acid [5-chloro-2-(2,3-dihydro-5H-benzo[f][1,4]oxazepine-4-carbonyl)-phenyl]-amide] it was 158 nM; in that of `C[C@H](NC(=O)c1ccc(I)cc1NS(=O)(=O)c1cccc2nccnc12)c1ccc(Cl)cc1Cl` [Example 66, (S)-N-[1-(2,4-Dichloro-phenyl)-ethyl]-4-iodo-2-(quinoxaline-5-sulfonylamino)-benzamide], 50.1 nM.
